# Experimental data: ChEMBL document CHEMBL4420070, “6-6 Fused Bicyclic Heteroaryl Compounds and their Use as LATS Inhibitors” (2018)
# Calls of active or inactive are those of the source. The calls are words filed in the database; no cut-off is given here.
# Tests used:
# [1] = target: T1, Serine/threonine-protein kinase LATS1 (Homo sapiens, UniProt O95835); experiment: Inhibition of human LATS1 kinase domain (589 to 1130 amino acids) incubated for 30 mins by HTRF assay
# T1 sequence (O95835 whole entry): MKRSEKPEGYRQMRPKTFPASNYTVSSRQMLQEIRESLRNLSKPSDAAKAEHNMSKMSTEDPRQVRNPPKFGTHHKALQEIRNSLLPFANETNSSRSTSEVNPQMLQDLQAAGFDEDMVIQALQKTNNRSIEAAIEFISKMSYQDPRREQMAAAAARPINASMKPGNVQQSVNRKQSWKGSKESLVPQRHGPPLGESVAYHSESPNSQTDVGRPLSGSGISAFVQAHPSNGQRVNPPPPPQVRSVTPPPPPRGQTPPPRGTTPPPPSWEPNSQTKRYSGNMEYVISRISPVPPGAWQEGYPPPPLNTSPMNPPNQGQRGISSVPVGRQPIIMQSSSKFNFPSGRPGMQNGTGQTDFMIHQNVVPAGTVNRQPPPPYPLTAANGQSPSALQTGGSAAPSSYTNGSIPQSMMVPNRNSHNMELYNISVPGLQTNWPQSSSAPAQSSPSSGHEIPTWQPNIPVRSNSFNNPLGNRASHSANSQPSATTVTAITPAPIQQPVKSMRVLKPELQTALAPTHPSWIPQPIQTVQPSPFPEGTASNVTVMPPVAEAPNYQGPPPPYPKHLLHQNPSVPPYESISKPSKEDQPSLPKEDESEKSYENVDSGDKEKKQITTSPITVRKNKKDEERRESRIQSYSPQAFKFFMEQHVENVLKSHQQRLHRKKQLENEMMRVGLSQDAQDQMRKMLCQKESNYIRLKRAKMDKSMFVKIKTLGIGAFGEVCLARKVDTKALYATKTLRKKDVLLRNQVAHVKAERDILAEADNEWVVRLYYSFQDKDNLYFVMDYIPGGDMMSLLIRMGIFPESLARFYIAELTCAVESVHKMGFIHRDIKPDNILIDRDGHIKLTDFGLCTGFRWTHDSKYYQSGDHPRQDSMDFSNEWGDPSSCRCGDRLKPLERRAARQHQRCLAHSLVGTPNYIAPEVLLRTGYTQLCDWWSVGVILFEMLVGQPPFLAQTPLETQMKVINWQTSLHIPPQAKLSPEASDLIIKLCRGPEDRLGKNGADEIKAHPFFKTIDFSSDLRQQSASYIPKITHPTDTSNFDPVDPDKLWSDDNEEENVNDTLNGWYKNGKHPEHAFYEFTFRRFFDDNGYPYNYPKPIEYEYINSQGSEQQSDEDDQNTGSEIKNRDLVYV
# [2] = target: T2, Serine/threonine-protein kinase LATS (Homo sapiens) (UniProt Q9NRM7+O95835); experiment: Inhibition of LATS in human limbal epithelial cells assessed as induction of limbal stem cell expansion by measuring expansion factor ratio at 10 uM measured after 2 weeks by p63alpha expression detection based immunohistochemistry relative to control; set-up: scale not given: the % may be the effect or the level left
# [3] = target: T2, Serine/threonine-protein kinase LATS (Homo sapiens); experiment: Inhibition of LATS in human corneal endothelium cells assessed as induction of cell expansion by measuring cell density at 10 uM by Sytox orange dye based epifluorescence microscopy
# [4] = target: T2, Serine/threonine-protein kinase LATS (Homo sapiens); experiment: Inhibition of LATS in human limbal epithelial cells assessed as increase in YAP level at 10 uM incubated for 24 hrs by immunostaining based assay; details: Epithelial cell
# [5] = target: T2, Serine/threonine-protein kinase LATS (Homo sapiens); experiment: Inhibition of LATS in human limbal epithelial cells assessed as reduction in YAP phosphorylation level at 10 uM incubated for 1 hr by Western blot analysis; type: cell-based; details: Epithelial cell
# [6] = target: T2, Serine/threonine-protein kinase LATS (Homo sapiens); experiment: Inhibition of LATS in human limbal epithelial cells assessed as induction of limbal stem cell expansion by measuring p63alpha expression at 10 uM measured after 2 weeks by immunohistochemistry; type: cell-based
# [7] = target: T2, Serine/threonine-protein kinase LATS (Homo sapiens); experiment: Inhibition of LATS in human limbal epithelial cells assessed as induction of limbal stem cell expansion marker expression by measuring deltaN-p63-alphabetagamma protein expression at 10 uM incubated for 8 to 10 days by immunohistochemistry; type: cell-based
# [8] = target: T2, Serine/threonine-protein kinase LATS (Homo sapiens); experiment: Inhibition of LATS in human limbal epithelial cells assessed as induction of limbal stem cell expansion marker expression by measuring ABCG2 protein expression at 10 uM incubated for 8 to 10 days by immunohistochemistry; type: cell-based
# [9] = target: T2, Serine/threonine-protein kinase LATS (Homo sapiens); experiment: Inhibition of LATS in human limbal epithelial cells assessed as induction of limbal stem cell expansion marker expression by measuring C/EBPdelta protein expression at 10 uM incubated for 8 to 10 days by immunohistochemistry; type: cell-based
# [10] = target: T2, Serine/threonine-protein kinase LATS (Homo sapiens); experiment: Inhibition of LATS in human limbal epithelial cells assessed as induction of cell differentiation into corneal epithelial cells by measuring keratin-12 expression at 10 uM incubated for 8 to 10 days followed by medium change to DMEM medium without serum and compound for further incubation for 4 to 8 days by confocal microscopy; type: cell-based
# [11] = target: T2, Serine/threonine-protein kinase LATS (Homo sapiens); experiment: Inhibition of LATS in human corneal endothelium cells assessed as increase in YAP level at 10 uM incubated for 24 hrs by immunohistochemistry
# [12] = target: T2, Serine/threonine-protein kinase LATS (Homo sapiens); experiment: Inhibition of LATS in human corneal endothelium cells assessed as reduction in YAP phosphorylation at 10 uM incubated for 1 hr by Western blot analysis
# [13] = target: T2, Serine/threonine-protein kinase LATS (Homo sapiens); experiment: Inhibition of LATS in human corneal endothelium cells assessed as induction of cell proliferation measured every 3 hrs for 10 days
# [14] = target: T2, Serine/threonine-protein kinase LATS (Homo sapiens); experiment: Inhibition of LATS in human corneal endothelium cells assessed as induction of tight junctions formation by measuring ZO1 expression at 10 uM incubated for 10 days by immunofluorescence staining based confocal microscopy
# [15] = target: T2, Serine/threonine-protein kinase LATS (Homo sapiens); experiment: Inhibition of LATS in human corneal endothelium cells assessed as induction of normal corneal endothelial cell morphology at 10 uM incubated for 10 days by immunofluorescence staining based confocal microscopy
# [16] = target: T2, Serine/threonine-protein kinase LATS (Homo sapiens); experiment: Inhibition of LATS in human corneal endothelium cells assessed as induction of cell expansion by measuring Collagen 8a2 gene expression at 10 uM incubated for 10 days by RT-PCR analysis
# [17] = target: T2, Serine/threonine-protein kinase LATS (Homo sapiens); experiment: Inhibition of LATS in human corneal endothelium cells assessed as induction of cell expansion by measuring AQP1 gene expression at 10 uM incubated for 10 days by RT-PCR analysis
# [18] = target: T2, Serine/threonine-protein kinase LATS (Homo sapiens); experiment: Inhibition of LATS in human corneal endothelium cells assessed as induction of cell expansion by measuring SLC4A11 gene expression at 10 uM incubated for 10 days by RT-PCR analysis
# [19] = target: T2, Serine/threonine-protein kinase LATS (Homo sapiens); experiment: Inhibition of LATS in human corneal endothelium cells assessed as induction of cell expansion by measuring Na/K ATPase protein expression at 10 uM incubated for 10 days by immunohistochemistry
# [20] = target: T2, Serine/threonine-protein kinase LATS (Homo sapiens); experiment: Inhibition of LATS in human corneal endothelium cells assessed as induction of cell expansion by measuring Collagen 8a2 protein expression at 10 uM incubated for 10 days by immunohistochemistry
# Mus musculus [21] = experiment: Inhibition of LATS in C57BL/6J mouse assessed as change in CTGF mRNA expression level at 10 mg/kg, po administered as single dose measured after 2 hrs by qRT-PCR analysis relative to control; type: functional
# Mus musculus [22] = experiment: Inhibition of LATS in C57BL/6J mouse assessed as change in Cyr61 mRNA expression level at 10 mg/kg, po administered as single dose measured after 2 hrs by qRT-PCR analysis relative to control; type: functional
# Mus musculus [23] = experiment: Inhibition of LATS in C57BL/6J mouse assessed as change in Ki67 protein expression level at 10 mg/kg, po administered as single dose measured after 24 hrs by immunohistochemistry analysis relative to control; type: functional
# [24] = Total drug level in cell pellets of human limbal stem cells by LC-MS analysis; type: ADME
# [25] = Drug level in post wash cell pellets of human limbal stem cells by LC-MS analysis; type: ADME
# T2 sequence (Q9NRM7 whole entry, looked up, one chain of several): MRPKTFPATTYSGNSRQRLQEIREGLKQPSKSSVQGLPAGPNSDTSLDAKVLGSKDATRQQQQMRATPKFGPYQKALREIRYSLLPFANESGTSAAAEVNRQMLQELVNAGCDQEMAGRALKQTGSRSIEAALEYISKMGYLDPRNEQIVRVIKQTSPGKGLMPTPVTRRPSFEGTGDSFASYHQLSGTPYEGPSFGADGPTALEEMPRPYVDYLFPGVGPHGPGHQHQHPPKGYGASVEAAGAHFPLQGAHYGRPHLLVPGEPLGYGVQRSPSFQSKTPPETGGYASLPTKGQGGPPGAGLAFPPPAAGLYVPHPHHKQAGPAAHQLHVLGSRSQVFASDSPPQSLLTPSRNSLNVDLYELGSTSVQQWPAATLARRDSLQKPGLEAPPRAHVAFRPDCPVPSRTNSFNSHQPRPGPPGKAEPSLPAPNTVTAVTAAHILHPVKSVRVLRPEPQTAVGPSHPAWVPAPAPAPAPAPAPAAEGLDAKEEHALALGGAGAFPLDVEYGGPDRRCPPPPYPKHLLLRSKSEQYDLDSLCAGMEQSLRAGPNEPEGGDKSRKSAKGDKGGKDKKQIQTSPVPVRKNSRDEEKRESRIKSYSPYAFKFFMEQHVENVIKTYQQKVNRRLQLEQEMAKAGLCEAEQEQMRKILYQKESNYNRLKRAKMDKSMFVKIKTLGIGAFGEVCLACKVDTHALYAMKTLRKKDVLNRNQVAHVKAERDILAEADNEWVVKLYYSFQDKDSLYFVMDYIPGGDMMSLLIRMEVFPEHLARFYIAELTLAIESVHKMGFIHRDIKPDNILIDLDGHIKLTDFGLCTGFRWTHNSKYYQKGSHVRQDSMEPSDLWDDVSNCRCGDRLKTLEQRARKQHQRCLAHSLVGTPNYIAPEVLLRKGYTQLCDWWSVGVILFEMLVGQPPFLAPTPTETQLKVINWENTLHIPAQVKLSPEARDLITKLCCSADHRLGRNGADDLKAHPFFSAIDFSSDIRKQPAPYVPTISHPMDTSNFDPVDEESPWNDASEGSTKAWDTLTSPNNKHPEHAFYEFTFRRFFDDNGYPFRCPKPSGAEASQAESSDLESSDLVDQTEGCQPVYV
smiles,measurement,setting,value
CN(C)CCC(C)(C)Nc1nc(-c2ccncc2)nc2cnccc12,IC50,[1],1 nM
FC(F)(F)C1(Nc2nc(-c3ccncc3)nc3cnccc23)CCC1,Activity,[2],57 to 97%
same,Activity,[3],3300 /mm2
Cc1n[nH]c(C)c1-c1nc(NC(C)(C)C(F)(F)F)c2ccncc2n1,IC50,[1],10 nM
FC(F)(F)C1CN(c2nc(-c3ccncc3)nc3cnccc23)CCN1 (stereo unspecified),Activity,[2],57 to 97%
same,Activity,[3],2070 /mm2
CC(C)(O)CC(C)(C)Nc1nc(-c2ccncc2)nc2cnccc12,inhibition,[4],Active
same,inhibition,[5],Active
same,inhibition,[6],Active
same,Activity,[2],57 to 97%
same,inhibition,[7],Active
same,inhibition,[8],Active
same,inhibition,[9],Active
same,inhibition,[10],Active
same,inhibition,[11],Active
same,inhibition,[12],Active
same,inhibition,[13],Active
same,Activity,[3],3870 /mm2
same,inhibition,[14],Active
same,inhibition,[15],Active
same,inhibition,[16],Active
same,inhibition,[17],Active
same,inhibition,[18],Active
same,inhibition,[19],Active
same,inhibition,[20],Active
O=C(O)CCCNc1nc(-c2ccncc2)nc2cnccc12,IC50,[1],> 2500 nM
FC(F)(F)C1(Nc2nc(-c3ccncc3)cc3cnccc23)CC1,Activity,[2],57 to 97%
same,Activity,[3],2780 /mm2
CC1(C)CC(O)CCN1c1cc(-c2ccncc2Cl)nc2cnccc12 (stereo unspecified),IC50,[1],20 nM
CC(C)(CO)Nc1nc(-c2ccncc2)nc2cnccc12,Activity,[2],57 to 97%
same,Activity,[3],2500 /mm2
CC(C)(C)Nc1cc(-c2ccncc2)nc2cnccc12,fold change (FC),Mus musculus [21],2.5
same,fold change (FC),Mus musculus [22],3.9
same,fold change (FC),Mus musculus [23],3.1
same,Activity,[2],57 to 97%
same,inhibition,[10],Active
same,Drug uptake,[24],83 pg
same,Drug uptake,[25],0.315 to 11 nM
same,Activity,[3],4310 /mm2
O[C@H]1CCC[C@@H]1Nc1nc(-c2ccncc2)nc2cnccc12,Activity,[2],57 to 97%
same,Activity,[3],25 /mm2
